The source of these data is US5382579A, “Triazolo-1,4-diazepine derivatives and their use in pharmaceuticals” (Eisai Co., Ltd., priority 1988, dated 1995).

By IC50 is commonly meant the point on the concentration scale where inhibition reaches its midpoint.

T1 sequence (P25105 whole entry): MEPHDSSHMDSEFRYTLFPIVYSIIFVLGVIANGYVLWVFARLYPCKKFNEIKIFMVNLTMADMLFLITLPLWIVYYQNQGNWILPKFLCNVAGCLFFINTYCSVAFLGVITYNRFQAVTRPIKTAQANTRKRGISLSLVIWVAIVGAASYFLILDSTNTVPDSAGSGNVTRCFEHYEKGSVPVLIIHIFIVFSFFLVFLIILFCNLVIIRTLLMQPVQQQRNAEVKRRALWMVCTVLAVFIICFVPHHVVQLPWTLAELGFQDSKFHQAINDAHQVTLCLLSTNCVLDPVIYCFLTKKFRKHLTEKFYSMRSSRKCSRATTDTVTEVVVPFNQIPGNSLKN

One assay has as its target T1, PAF receptor (Homo sapiens, UniProt P25105).
T1 construct: Platelets are obtained from healthy men according to the usual method; endogenous in cells; host or cells: platelets from healthy men
Description: PAF Receptor Binding Assay to the Human Platelet (3H-PAF). The note with it: PAF receptor binding assay IC50, human platelets, 3H-PAF 0.6-1 nM, 37° C., pH 7.0. On the procedure: Platelets are obtained from healthy men according to the usual method and suspended at a concentration of 10^8 platelets/460 μl in a binding buffer (10 mM phosphate-buffers saline (pH 7.0), with 0.1% (w/V) BSA and 0.9 mM CaCl2). Platelets (10^8) in 460 μl of the buffer were added to polypropylene tubes and preincubated with test compounds (20 μl), after vortexing, for 6 min at 37° C. Subsequently, 20 μl of a binding buffer solution of ^3 H-PAF (final ^3 H-PAF concentration 0.6-1 nM) was added to the tubes, which were incubated for 6 minutes. The binding reaction was stopped by adding of 3 ml of an ice-cold washing solution (saline containing 0.1% (w/v) BSA). Platelets were isolated by vacuum filtration on glass filters (Whatman GF/C). After drying the glass filter, radioactivity on the glass filter was measured in scintilator with a liquid scintillation counter.
The inhibition percent is calculated according to the following equation and the value of IC is determined by interpolation from the figure. [formula] binding: radioactivity of binding in the absence of cold PAF or test compounds
non-specific binding: radioactivity of binding in the presence of 10^-5 M PAF
non-specific binding: radioactivity (dpm) after the incubation with 10^-5 M of cold PAF.
The compound `C#CCCOC(=O)N1CCc2c(sc3c2C(c2ccccc2Cl)=NCc2nnc(C)n2-3)C1` [drawing 83] gave an IC50 of 3.5 nM.

`CCC#CCOC(=O)N1CCc2c(sc3c2C(c2ccccc2Cl)=NCc2nnc(C)n2-3)C1` had an IC50 of 0.74 nM.

As for `Cc1nnc2n1-c1sc3c(c1C(c1ccccc1Cl)=NC2)CCN(C(=O)OCCCC#N)C3` [drawing 89], the IC50 was 4.4 nM.

`Cc1nnc2n1-c1sc3c(c1C(c1ccccc1Cl)=NC2C)CCN(C(=O)C1CC1)C3` (single isomer, unassigned) [drawing 95] gave a half-inhibitory concentration (IC50) of 2.8 nM.

Take `Cc1nnc2n1-c1sc3c(c1C(c1ccccc1Cl)=NC2)CCN(C(=O)OC(C)(C)C#N)C3`: the IC50 was 3.3 nM.

In turn, `Cc1nnc2n1-c1sc3c(c1C(c1ccccc1Cl)=NC2)CCN(C(=O)C1CCC1)C3` yielded an IC50 of 1.8 nM.

In the case of `Cc1nnc2n1-c1sc3c(c1C(c1ccccc1Cl)=NC2)CCN(C(=O)C#Cc1ccccc1)C3`, the IC50 amounted to 0.56 nM.

In the case of `Cc1nnc2n1-c1sc3c(c1C(c1ccccc1Cl)=NC2C)CCN(C(=O)C1CC1)C3` (single isomer, unassigned) [drawing 94], the IC50 turned out to be 420 nM.

`C#CCCCCOC(=O)N1CCc2c(sc3c2C(c2ccccc2Cl)=NCc2nnc(C)n2-3)C1` gave an IC50 of 0.22 nM.

Consider `Cc1nnc2n1-c1sc3c(c1C(c1ccccc1Cl)=NC2)CCN(C(=O)OCCCC#N)C3` [drawing 82], for which the IC50 stood at 2.7 nM.

The assay is the same for the next values; noted with them: human platelets, 3H-PAF 0.6-1 nM, 37° C., pH 7.0; read-out: PAF receptor binding assay IC50.
For the compound `C#CCCOC(=O)N1CCc2c(sc3c2C(c2ccccc2Cl)=NCc2nnc(C)n2-3)C1` [drawing 88], the IC50 is 1.5 nM.

For the compound `C#CCCOC(=O)N1CCc2c(sc3c2C(c2ccccc2Cl)=NC(C)c2nnc(C)n2-3)C1` (single isomer, unassigned) [drawing 93], the IC50 turned out to be 0.34 nM.

With `Cc1nnc2n1-c1sc3c(c1C(c1ccccc1Cl)=NC2C)CCN(C(=O)OC(C)(C)C#N)C3` (single isomer, unassigned) [drawing 90], the IC50 is 500 nM.

For `C#CCCOC(=O)N1CCc2c(sc3c2C(c2ccccc2Cl)=NC(C)c2nnc(C)n2-3)C1` (single isomer, unassigned) [drawing 92], the IC50 was found to be 82 nM.

For the compound `Cc1nnc2n1-c1sc3c(c1C(c1ccccc1Cl)=NC2C)CCN(C(=O)OC(C)(C)C#N)C3` (single isomer, unassigned) [drawing 91], the IC50 is 3.1 nM.
